Earlier results in patent US20170035778A1, “FORMULATIONS AND USES FOR MICROPARTICLE DELIVERY OF METALLOPORPHYRINS” (The Board of Trustees of the Leland Stanford Junior …, priority 2015, published 2017).

Settings: SnMP within 24 h of birth in premature newborns

For tin mesoporphyrin [SnMP], the “reduction of the requirement for phototherapy compared with control subjects” value is listed as “approximately 75%”.
